# Experimental data from patent US8946201B2, “Methods for inhibiting TGF-β” (Saint Louis University, priority 2007, dated 2015).
# How the values were obtained:
# [1] = tested on: Smad2 phosphorylation stimulated by TGF-β1; test: TGF-β1-stimulated Smad2 phosphorylation, Western blot, Mv1Lu cells; type: cell-based, mink
# Experimental: (§1) Cells were treated with increasing concentrations of cholesterol, as indicated (A, B, C), 50 μg protein/ml LDL (D), 5 μg protein/ml VLDL (D) or 50 μg/ml cholesterol (E) at 37° C. for 1 hr and then further incubated with 50 pM TGF-β1 for 30 min. Phosphorylated Smad2 (P-Smad2) and total Smad2 in the cell lysates were analyzed by 7.5% SDS-PAGE and followed by immunoblot analysis using anti-P-Smad2 and anti-Smad2 antibodies. A representative of a total of 3 analyses is shown (top). The quantitative analysis of the immunoblots is shown (bottom). […] Smad2 nuclear translocation was analyzed by indirect immunofluorescent staining using P-Smad2 antibody and rhodamine-labeled 2nd antibody (E). Rhodamine fluorescence represents P-Smad2 staining (a,b,c) whereas the nuclei were stained by DAPI staining (d,e,f).
# (§2) Cells grown to near confluence on 12-well cluster dishes were treated with cholesterol or LDL in serum-free DMEM (vol.=0.5 ml/well) at 37° C. for 1 hr. […] Treated cells were lysed and cell lysates were analyzed by 7.5% SDS-PAGE and Western blot analysis using anti-Smad2, anti-P-Smad2, anti-caveolin-1, anti-TβR-I (alk5) or anti-TβR-II antibodies as described previously (30). […]
# (§3) It has been reported that TGF-β responsiveness is determined by TGF-β partitioning between lipid raft/caveolae-mediated and clathrin-mediated endocytosis. […]
# [2] = tested on: Smad2 phosphorylation stimulated by TGF-β1; test: TGF-β1-stimulated Smad2 phosphorylation, Western blot, NRK cells; type: cell-based, rat; settings: 25 μg/ml, 37° C. 1 hr, then 50 pM TGF-β1 0.5 hr
# Experimental: as §1, §2, §3
# TβR-I and TβR-II = test: Western blot of TβR-I and TβR-II protein levels, Mv1Lu cells; type: cell-based, mink; settings: 50 μg/ml
# Experimental: Cells grown to near confluence on 12-well cluster dishes were treated with cholesterol or LDL in serum-free DMEM (vol.=0.5 ml/well) at 37° C. for 1 hr. The treated cells were further incubated with 50 or 100 pM TGF-β1 at 37° C. for 30 min (for determining Smad2 phosphorylation) or for 2 hr (for determining TβR-II). Treated cells were lysed and cell lysates were analyzed by 7.5% SDS-PAGE and Western blot analysis using anti-Smad2, anti-P-Smad2, anti-caveolin-1, anti-TβR-I (alk5) or anti-TβR-II antibodies as described previously (30). The antigens on the blots were visualized by using horseradish peroxidase-conjugated anti-rabbit IgG antibody and the ECL system as described (30).
# To determine if cholesterol suppresses TGF-β responsiveness by decreasing the ratio of TGF-β1 binding to TβR-II and TβR-I, we first determined the time course of the effect of cholesterol treatment on the ratio of ^125I-TGF-β1 binding to TβR-II and TβR-I in Mv1Lu cells. These cells were treated with 50 μg/ml cholesterol at 37° C. for several time periods. ^125I-TGF-β1 binding to TGF-β receptors was then determined by affinity labeling using the bifunctional cross-linking agent DSS (disuccinimidyl suberate) followed by 7.5% SDS-PAGE and autoradiography or quantified with a PhosphoImager. […] We then performed analysis of the effect of cholesterol treatment on TGF-β1 binding to TβR-I and TβR-II in several cell types. Mv1Lu, BAEC, and NRK cells were treated for 1 hr with increasing concentrations of cholesterol in the presence and absence of 0.2% β-cyclodextrin (β-CD, which forms water-soluble complexes with cholesterol) at 37° C. The binding of TGF-β1 to TβR-I and TβR-II in these cells was then determined by ^125I-TGF-β1 affinity labeling at 0° C.
# Mv1Lu cells = test: Cell viability under the experimental conditions, Mv1Lu cells; type: cell-based, mink; settings: conditions of the thymidine incorporation or affinity labeling experiment
# Experimental: The growth of cholesterol-treated cells was determined by measurement of [methyl-^3H]thymidine incorporation into cellular DNA as described (30). Briefly, cells grown near confluence on 48-well clustered dishes were treated with several concentrations of cholesterol at 37° C. for 1 hr in serum-free DMEM. The final concentration of ethanol (the vehicle for cholesterol) in the medium was 0.2%. Treated cells were then incubated with 0.0625 pM or 0.125 pM of TGF-β1 in DMEM containing 0.1% fetal calf serum at 37° C. for 18 hr. The [methyl-^3H]thymidine incorporation into cellular DNA was then determined by incubation of cells with [methyl-^3H]thymidine at 37° C. for 2 hr in DMEM containing 0.1% fetal calf serum. The optimal concentrations of TGF-β1 to inhibit cell growth are in the range of 0.1 to 1 pM.
# To define the specificity of the cholesterol effect, we determined the effects of cholesterol analogs and derivatives on ^125I-TGF-β1 binding to TβR-I and TβR-II in Mv1Lu cells. These cells were treated with 50 μg/ml of cholesterol or related oxysterol derivatives (25-hydroxycholesterol, 7-dehydrocholesterol (7-DHC), oxidized 7-DHC (oxy-7-DHC), cholest-5-en-7-one, 7-ketocholesterol, 7β,8β-epoxycholestanol, and 7β-hydroxycholesterol) at 37° C. for 1 hr. ^125I-TGF-β1 binding to TGF-β receptors was then determined by affinity labeling.
compound,measurement,setting,value
CC(C)CCC[C@@H](C)[C@H]1CC[C@H]2[C@@H]3CC=C4C[C@@H](O)CC[C@]4(C)[C@H]3CC[C@]12C [cholesterol],suppression of Smad2 phosphorylation stimulated by TGF-β1,"[1]; 25 μg/ml, 37° C. 1 hr, then 50 pM TGF-β1 0.5 hr, Mv1Lu cells",55%
same,effect on Smad2 phosphorylation,"[1]; at concentrations of 6 or 10 μg/ml, Mv1Lu, BAEC, NRK cells (FIG. 1)",appreciably suppressed
same,suppression of Smad2 phosphorylation stimulated by TGF-β1,[2],40%
same,effect on the protein levels of TβR-I and TβR-II,TβR-I and TβR-II; data not shown,did not affect
same,effect on the total amount of TβR-II protein,TβR-I and TβR-II; cholesterol alone,did not affect
same,effect on cell viability,Mv1Lu cells,did not appear to affect
